From patent US20240226170A9, “USE OF MBV FOR TREATING AUTOIMMUNE DISEASE” (University of Pittsburgh - Of the Commonwealth System of …, priority 2019, published 2024)

Legend:
[1] = tested on: antibody response to the KLH antigen; details: days 7, 14, and 21 post-immunization; MBV 1 mg/ml i.v. on Day 0, 3, 6; cyclophosphamide 200 mg/kg i.p. on Day 0
Protocol: The Keyhold Limpet Hemocyanin (KLH) rat model of immunosuppression and immunotoxicity was used to assess immunotoxicity of MBV delivered systemically. […] On Day 0, the cyclophosphamide treated animals received 200 mg/kg i.p. and the MBV treated animals received 1 mg/ml UBM MBV delivered intravenously on Day 0, 3, and 6. On Day 7, all groups besides the vehicle control were immunized with 0.4 mL of 1000 μg/ml reconstituted KLH in Freund's incomplete adjuvant i.p. On days 14, 21, and 28 (7, 14, and 21 days post-immunization), whole blood was collected from the lateral tail vein and serum was isolated for analysis of anti-KLH IgM and IgG. Anti-KLH IgM and IgG were assessed in the serum of all animals using ELISA.

[2] = tested on: Pristane-induced arthritis; experiment: Pristane-induced arthritis in rats, 60-point arthritis score; assay type: in vivo; details: for disease severity (arthritis score) compared to Pristane+PBS: p<0.05
Protocol: The Pristane-induced arthritis model in rats has been established as a clinically-relevant animal model for studying rheumatoid arthritis (Tuncel et al. PLoS One. 2016; 11(5):e0155936). Pristane induced arthritis was induced in 8-week-old, female, Sprague-Dawley rats by an intradermal injection of 300 μL Pristane (2,6,10,14-tetramethypentadecane) at the dorsal side of the tail, 1 cm distal to the base on Day 0 of the study. […] A second dose of 300 μL pristane was administered intradermally, approximately 1 cm distally to the dorsal tail base on Day 4. Animals receiving Pristane were housed together in cages. Animals receiving Pristane were randomized into the following experimental groups: Pristane-only+PBS, Pristane+i.p. Methotrexate (MTX), Pristane+periarticular (p.a.) MBV, and intravenous (i.v.) MBV.
An arthritis score was determined on days 7, 10, 14, 17, 21, 28, and every week thereafter through an endpoint of 100 days for each animal. Photographs of each forepaw and hindpaw were taken as viewed from the volar and plantar perspectives, respectively. Qualitative arthritis severity was evaluated by two independent reviewers using a 60-point arthritis scoring criteria: 1 point was given for each inflamed knuckle or toe, and up to 5 points was assigned for an affected ankle (15 points per paw, 60 points per each rat). […] The Pristane+i.p. methotrexate animals received 0.1 mg/kg methotrexate in 1× sterile PBS (pH 7.4) delivered intra-peritoneally (i.p.) on days 7, 10, 14, 17, and 21. The Pristane+periarticular MBV animals received 25 μL of 500 μg/mL porcine-derived UBM MBV (1×10^11 particles/mL) delivered in the plantar and volar surfaces of hindpaws and forepaws, respectively. The intravenous MBV group received 100 μL of 500 μg/mL UBM MBV (1×10^11 particles/mL) delivered intravenously into the lateral tail vein of the animal. (FIG. 12A) Four animals in each group were assigned to a short-term study of 28 days and four animals were assigned to a 100 day study. Sample size was determined using previously published effect size of methotrexate with a predetermined alpha 0.05 and beta 0.80. Arthritis score was represented as mean+/−standard error of mean. Days 7-21 represent an n of 8 for each group and then days 28 and onward represent an n of 4 for each group. Differences in groups were analyzed using two-way analysis of variance with Tukey's post-hoc correction. Significance was determined prior to the study as p<0.05.

[3] = tested on: bone remodeling and joint destruction in fore- and hindpaws; experiment: MicroCT imaging of paws at day 100 (pristane-induced arthritis); assay type: in vivo, Sprague-Dawley rats; details: i.p. MTX, qualitative
Source text: Micro-Computed Tomography (microCT) images were acquired of hindpaws after sacrifice at day 100 of the animals studied in Example 2.

[4] = tested on: tibiotalar joint and adjacent synovium; experiment: Histopathologic scoring of the tibiotalar joint at day 100 (pristane-induced arthritis); assay type: in vivo, Sprague-Dawley rats; details: i.p. MTX, not significant (p>0.05)
Source text: Synovial inflammation, cartilage destruction, and proteoglycan loss are fundamental histopathologic changes that occur in RA disease progression. To determine the effect of MBV treatment on these histopathologic parameters, rat hind paws were collected at study termination for histopathologic imaging and analysis (day 100) from the animals from Example 2.
One hindpaw from each animal was used for histopathological analysis. Tissue specimens were fixed with 10% formalin in PBS, pH 7.4, decalcified using 5% formic acid, and embedded in paraffin wax. Sections were stained with hematoxylin and eosin (H&E) for examination by light microscopy for joint histology and pathology. […]
Inflammation and joint damage of the tibiotalar joint were investigated by using an adapted three-parameter scoring system. Inflammation was scored on a scale of 0-3 (with 0 representing no inflammation and 3 a severe inflamed joint) depending on the relative proportion of inflammatory cells in the synovial tissue. Cartilage destruction was scored on a scale of 0-3, with results ranging from the appearance of dead chondrocytes and empty lacunae to complete loss of articular cartilage. Loss of proteoglycans in cartilage was scored on a scale of 0-3, and here results ranged from fully stained cartilage by toluidine blue staining to complete loss of articular cartilage. […]

Compound | anti-KLH IgG levels compared to the Vehicle+KLH control [1] | anti-KLH IgM levels compared to the Vehicle+KLH control [1] | peak disease score ([2]; acute phase (days 0-42), Pristane+i.p. MTX 0.1 mg/kg on days 7, 10, 14, 17, 21, peak at day 21, mean±SEM) | disease severity (arthritis score) compared to Pristane+PBS ([2]; acute phase, Pristane+i.p. MTX 0.1 mg/kg) | disease severity (arthritis score) compared to Pristane+PBS ([2]; acute phase, Pristane+i.p. MTX 0.1 mg/kg, listed as methotrexate) | disease severity (arthritis score) compared to Pristane+PBS ([2]; chronic phase, days 84-100, no treatment after day 28, Pristane+i.p. MTX) | disease severity (arthritis score) compared to Pristane+PBS ([2]; chronic phase, days 84-100, no treatment after day 28, Pristane+i.p. MTX, listed as methotrexate) | adverse bone remodeling by microCT, compared to the vehicle control [3] | severity of cartilage damage compared to Pristane+PBS [4] | severity of proteoglycan loss compared to Pristane+PBS [4]
O=P1(N(CCCl)CCCl)NCCCO1 (stereo not shown) [Cyclophosphamide] | significantly reduces anti-KLH IgG levels | significantly reduces anti-KLH IgM levels | – | – | – | – | – | – | – | –
CN(Cc1cnc2nc(N)nc(N)c2n1)c1ccc(C(=O)N[C@@H](CCC(=O)O)C(=O)O)cc1 [MTX, methotrexate] | – | – | 9.8±0.8 | reduced acute disease severity at days 10, 14, 17, and 21 | significantly reduces disease scoring | significant decrease in disease severity | significantly reduces disease scoring | substantially prevented adverse bone remodeling | reduced the severity of cartilage damage | reduced the severity of proteoglycan loss
